Experimental data reported in ChEMBL document CHEMBL3997821, “Design, synthesis and evaluation of novel pyrazolo-pyrimido[4,5-d]pyrimidine derivatives as potent antibacterial and biofilm inhibitors” (Bioorg Med Chem Lett, 2017).
Values after ≈ are worked out from the molar mass of the structure shown.

Key:
Format in all cases: functional
[1] = system: Micrococcus luteus; assay: Ratio of MBC to MIC for Micrococcus luteus MTCC 2470
[2] = system: Micrococcus luteus; assay: Antibiofilm activity against Micrococcus luteus MTCC 2470 after 24 hrs by crystal violet staining based assay; conditions: MTCC 2470, 24 h
[3] = system: Staphylococcus aureus; assay: Ratio of MBC to MIC for Staphylococcus aureus MTCC 96
[4] = system: Staphylococcus aureus; assay: Antibiofilm activity against Staphylococcus aureus MTCC 96 after 24 hrs by crystal violet staining based assay; conditions: MTCC 96, 24 h
[5] = system: Staphylococcus aureus; assay: Antibacterial activity against Staphylococcus aureus MLS16 MTCC 2940 after 24 hrs by well diffusion method; conditions: MLS16 MTCC 2940, 24 h
[6] = system: Bacillus subtilis; assay: Ratio of MBC to MIC for Bacillus subtilis MTCC 121
[7] = system: Staphylococcus aureus; assay: Antibiofilm activity against Staphylococcus aureus MLS16 MTCC 2940 after 24 hrs by crystal violet staining based assay; conditions: MLS16 MTCC 2940, 24 h
[8] = system: Bacillus subtilis; assay: Antibiofilm activity against Bacillus subtilis MTCC 121 after 24 hrs by crystal violet staining based assay; conditions: MTCC 121, 24 h
[9] = system: Micrococcus luteus; assay: Bactericidal activity against Micrococcus luteus MTCC 2470 after 24 hrs by serial dilution method; conditions: MTCC 2470, 24 h
[10] = system: Raoultella planticola; assay: Antibacterial activity against Klebsiella planticola MTCC 530 after 24 hrs by well diffusion method; conditions: MTCC 530, 24 h
[11] = system: Staphylococcus aureus; assay: Ratio of MBC to MIC for Staphylococcus aureus MLS16 MTCC 2940
[12] = system: Micrococcus luteus; assay: Antibacterial activity against Micrococcus luteus MTCC 2470 after 24 hrs by well diffusion method; conditions: MTCC 2470, 24 h
[13] = system: Staphylococcus aureus; assay: Antibacterial activity against Staphylococcus aureus MTCC 96 after 24 hrs by well diffusion method; conditions: MTCC 96, 24 h
[14] = system: Staphylococcus aureus; assay: Bactericidal activity against Staphylococcus aureus MTCC 96 after 24 hrs by serial dilution method; conditions: MTCC 96, 24 h
[15] = system: Staphylococcus aureus; assay: Bactericidal activity against Staphylococcus aureus MLS16 MTCC 2940 after 24 hrs by serial dilution method; conditions: MLS16 MTCC 2940, 24 h
[16] = system: Pseudomonas aeruginosa; assay: Antibacterial activity against Pseudomonas aeruginosa MTCC 2453 after 24 hrs by well diffusion method; conditions: MTCC 2453, 24 h
[17] = system: Escherichia coli; assay: Antibacterial activity against Escherichia coli MTCC 739 after 24 hrs by well diffusion method; conditions: MTCC 739, 24 h
[18] = system: Bacillus subtilis; assay: Antibacterial activity against Bacillus subtilis MTCC 121 after 24 hrs by well diffusion method; conditions: MTCC 121, 24 h
[19] = system: Bacillus subtilis; assay: Bactericidal activity against Bacillus subtilis MTCC 121 after 24 hrs by serial dilution method; conditions: MTCC 121, 24 h

| SMILES | IC50 [2] | IC50 [4] | MIC [5] | IC50 [7] | IC50 [8] | MIC [12] | MIC [13] | MIC [16] | MIC [17] | MIC [18] | Ratio [1] | Ratio [3] | Ratio [6] | MBC [9] | MIC [10] | Ratio [11] | MBC [14] | MBC [15] | MBC [19] |
| --- | --- | --- | --- | --- | --- | --- | --- | --- | --- | --- | --- | --- | --- | --- | --- | --- | --- | --- | --- |
| Cc1ccc(-c2nn(-c3ccccc3)cc2C2c3c(n(C)c(=O)n(C)c3=O)N=CN2c2ccc(C)cc2)cc1 (stereo not drawn) | 3.3 µg/mL (≈ 6.39 µM) | 4.2 µg/mL (≈ 8.13 µM) | 15.6 µg/mL (≈ 30.2 µM) | 8.2 µg/mL (≈ 15.9 µM) | 3.6 µg/mL (≈ 6.97 µM) | 7.8 µg/mL (≈ 15.1 µM) | 7.8 µg/mL (≈ 15.1 µM) | > 125 µg/mL | > 125 µg/mL | 7.8 µg/mL (≈ 15.1 µM) | 2 | 2 | 2 | 15.6 µg/mL (≈ 30.2 µM) | > 125 µg/mL | 2 | 15.6 µg/mL (≈ 30.2 µM) | 15.6 µg/mL (≈ 30.2 µM) | 31.2 µg/mL (≈ 60.4 µM) |
| COc1ccc(N2C=Nc3c(c(=O)n(C)c(=O)n3C)C2c2cn(-c3ccccc3)nc2-c2cccs2)cc1 (stereo not drawn) | – | – | 15.6 µg/mL (≈ 29.7 µM) | – | – | 15.6 µg/mL (≈ 29.7 µM) | 15.6 µg/mL (≈ 29.7 µM) | > 125 µg/mL | > 125 µg/mL | 31.2 µg/mL (≈ 59.5 µM) | – | – | – | 15.6 µg/mL (≈ 29.7 µM) | > 125 µg/mL | – | 31.2 µg/mL (≈ 59.5 µM) | 31.2 µg/mL (≈ 59.5 µM) | 31.2 µg/mL (≈ 59.5 µM) |
| Cc1ccc(N2C=Nc3c(c(=O)n(C)c(=O)n3C)C2c2cn(-c3ccccc3)nc2-c2ccc(Cl)cc2)cc1 (stereo not drawn) | – | – | > 125 µg/mL | – | – | 15.6 µg/mL (≈ 29 µM) | > 125 µg/mL | > 125 µg/mL | > 125 µg/mL | > 125 µg/mL | – | – | – | 31.2 µg/mL (≈ 58.1 µM) | > 125 µg/mL | – | > 125 µg/mL | > 125 µg/mL | > 125 µg/mL |
| Cc1ccc(N2C=Nc3c(c(=O)n(C)c(=O)n3C)C2c2cn(-c3ccccc3)nc2-c2ccccc2)cc1 (stereo not drawn) | – | – | > 125 µg/mL | – | – | > 125 µg/mL | > 125 µg/mL | > 125 µg/mL | > 125 µg/mL | > 125 µg/mL | – | – | – | – | > 125 µg/mL | – | – | – | – |
| Cn1c2c(c(=O)n(C)c1=O)C(c1cn(-c3ccccc3)nc1-c1ccccc1)N(c1ccccc1)C=N2 (stereo not drawn) | – | – | 15.6 µg/mL (≈ 31.9 µM) | – | – | 7.8 µg/mL (≈ 16 µM) | 31.2 µg/mL (≈ 63.9 µM) | > 125 µg/mL | > 125 µg/mL | 62.5 µg/mL (≈ 128 µM) | – | – | – | – | > 125 µg/mL | – | – | – | – |
| COc1ccc(N2C=Nc3c(c(=O)n(C)c(=O)n3C)C2c2cn(-c3ccccc3)nc2-c2ccc([N+](=O)[O-])cc2)cc1 (stereo not drawn) | – | – | 31.2 µg/mL (≈ 55.4 µM) | – | – | 15.6 µg/mL (≈ 27.7 µM) | 31.2 µg/mL (≈ 55.4 µM) | > 125 µg/mL | > 125 µg/mL | 31.2 µg/mL (≈ 55.4 µM) | – | – | – | 15.6 µg/mL (≈ 27.7 µM) | > 125 µg/mL | – | 62.5 µg/mL (≈ 111 µM) | 31.2 µg/mL (≈ 55.4 µM) | 31.2 µg/mL (≈ 55.4 µM) |
| Cc1ccc(N2C=Nc3c(c(=O)n(C)c(=O)n3C)C2c2cn(-c3ccccc3)nc2-c2ccc([N+](=O)[O-])cc2)cc1 (stereo not drawn) | 10.1 µg/mL (≈ 18.4 µM) | 12.6 µg/mL (≈ 23 µM) | 7.8 µg/mL (≈ 14.2 µM) | 9.5 µg/mL (≈ 17.3 µM) | 18.3 µg/mL (≈ 33.4 µM) | 15.6 µg/mL (≈ 28.5 µM) | 15.6 µg/mL (≈ 28.5 µM) | > 125 µg/mL | > 125 µg/mL | 7.8 µg/mL (≈ 14.2 µM) | 2 | 2 | 2 | 15.6 µg/mL (≈ 28.5 µM) | > 125 µg/mL | 2 | 31.2 µg/mL (≈ 57 µM) | 15.6 µg/mL (≈ 28.5 µM) | 31.2 µg/mL (≈ 57 µM) |
| Cn1c2c(c(=O)n(C)c1=O)C(c1cn(-c3ccccc3)nc1-c1ccc(Cl)cc1)N(c1cccc([N+](=O)[O-])c1)C=N2 (stereo not drawn) | – | – | > 125 µg/mL | – | – | > 125 µg/mL | > 125 µg/mL | > 125 µg/mL | > 125 µg/mL | > 125 µg/mL | – | – | – | – | > 125 µg/mL | – | – | – | – |

Second part, led by results:

| IC50 [2] | IC50 [4] | MIC [5] | IC50 [7] | IC50 [8] | MIC [12] | MIC [13] | MIC [16] | MIC [17] | MIC [18] | SMILES | Ratio [1] | Ratio [3] | Ratio [6] | MBC [9] | MIC [10] | Ratio [11] | MBC [14] | MBC [15] | MBC [19] |
| --- | --- | --- | --- | --- | --- | --- | --- | --- | --- | --- | --- | --- | --- | --- | --- | --- | --- | --- | --- |
| – | – | > 125 µg/mL | – | – | > 125 µg/mL | > 125 µg/mL | > 125 µg/mL | > 125 µg/mL | > 125 µg/mL | Cn1c2c(c(=O)n(C)c1=O)C(c1cn(-c3ccccc3)nc1-c1ccccc1)N(c1ccc(Cl)cc1)C=N2 (stereo not drawn) | – | – | – | 31.2 µg/mL (≈ 59.7 µM) | > 125 µg/mL | – | 62.5 µg/mL (≈ 120 µM) | 62.5 µg/mL (≈ 120 µM) | 62.5 µg/mL (≈ 120 µM) |
| – | – | > 125 µg/mL | – | – | > 125 µg/mL | > 125 µg/mL | > 125 µg/mL | > 125 µg/mL | > 125 µg/mL | Cn1c2c(c(=O)n(C)c1=O)C(c1cn(-c3ccccc3)nc1-c1ccc([N+](=O)[O-])cc1)N(c1ccccc1)C=N2 (stereo not drawn) | – | – | – | – | > 125 µg/mL | – | – | – | – |
| – | – | > 125 µg/mL | – | – | > 125 µg/mL | > 125 µg/mL | > 125 µg/mL | > 125 µg/mL | > 125 µg/mL | Cn1c2c(c(=O)n(C)c1=O)C(c1cn(-c3ccccc3)nc1-c1ccc([N+](=O)[O-])cc1)N(c1ccc(Cl)cc1)C=N2 (stereo not drawn) | – | – | – | – | > 125 µg/mL | – | – | – | – |
| – | – | 15.6 µg/mL (≈ 29.5 µM) | – | – | 15.6 µg/mL (≈ 29.5 µM) | 31.2 µg/mL (≈ 59 µM) | > 125 µg/mL | > 125 µg/mL | 15.6 µg/mL (≈ 29.5 µM) | Cn1c2c(c(=O)n(C)c1=O)C(c1cn(-c3ccccc3)nc1-c1cccs1)N(c1ccc(Cl)cc1)C=N2 (stereo not drawn) | – | – | – | 31.2 µg/mL (≈ 59 µM) | > 125 µg/mL | – | 31.2 µg/mL (≈ 59 µM) | 31.2 µg/mL (≈ 59 µM) | 31.2 µg/mL (≈ 59 µM) |
